The supplement of paper PMC13380429

Key:
Settings in all cases: 72 h
HepG2 [1] = assay: cell viability relative to DMSO; higher = less toxic
Vero E6 [2] = assay: as above
Caco-2 [3] = assay: as above
Calu-3 [4] = assay: as above
U2OS [5] = assay: as above
HepG2 [6] = assay: relative viability EC50 (midpoint between 100% and the lowest measured viability); higher = less toxic
Vero E6 [7] = assay: as above
Caco-2 [8] = assay: as above
Calu-3 [9] = assay: as above
U2OS [10] = assay: as above
HepG2 [11] = assay: drug sensitivity score (DSS) for viability; higher = more toxic; extreme values may be limits of the assay
Vero E6 [12] = assay: as above
Caco-2 [13] = assay: as above
Calu-3 [14] = assay: as above
U2OS [15] = assay: as above

Row | SMILES | cell viability (HepG2 [1]; 1 nM) [%] | cell viability (HepG2 [1]; 10 nM) [%] | cell viability (HepG2 [1]; 100 nM) [%] | cell viability (HepG2 [1]; 1000 nM) [%] | cell viability (HepG2 [1]; 10000 nM) [%] | cell viability (Vero E6 [2]; 1 nM) [%] | cell viability (Vero E6 [2]; 10 nM) [%] | cell viability (Vero E6 [2]; 100 nM) [%] | cell viability (Vero E6 [2]; 1000 nM) [%] | cell viability (Vero E6 [2]; 10000 nM) [%] | cell viability (Caco-2 [3]; 1 nM) [%] | cell viability (Caco-2 [3]; 10 nM) [%] | cell viability (Caco-2 [3]; 100 nM) [%] | cell viability (Caco-2 [3]; 1000 nM) [%] | cell viability (Caco-2 [3]; 10000 nM) [%] | cell viability (Calu-3 [4]; 1 nM) [%] | cell viability (Calu-3 [4]; 10 nM) [%] | cell viability (Calu-3 [4]; 100 nM) [%] | cell viability (Calu-3 [4]; 1000 nM) [%] | cell viability (Calu-3 [4]; 10000 nM) [%] | cell viability (U2OS [5]; 1 nM) [%] | cell viability (U2OS [5]; 10 nM) [%] | cell viability (U2OS [5]; 100 nM) [%] | cell viability (U2OS [5]; 1000 nM) [%] | cell viability (U2OS [5]; 10000 nM) [%] | relative viability EC50 (HepG2 [6]) [µM] | relative viability EC50 (Vero E6 [7]) [µM] | relative viability EC50 (Caco-2 [8]) [µM] | relative viability EC50 (Calu-3 [9]) [µM] | relative viability EC50 (U2OS [10]) [µM] | drug sensitivity score (HepG2 [11]) | drug sensitivity score (Vero E6 [12]) | drug sensitivity score (Caco-2 [13]) | drug sensitivity score (Calu-3 [14]) | drug sensitivity score (U2OS [15])
1 | COc1cc(/C=C/C(N)=O)cc(OC)c1OC [cintriamide] | 97.1 | 99.6 | 100 | 95.1 | 114 | 96.3 | 97.2 | 95.5 | 90.2 | 104 | 83 | 98.3 | 96 | 97.1 | 99.2 | 106 | 97.4 | 95.6 | 102 | 105 | 98.2 | 102 | 101 | 102 | 106 | > 10 | > 10 | > 10 | > 10 | > 10 | 0 | 0 | 0 | 0 | 0
2 | CC(=O)NC1CCSC1=O (stereo not given) [citiolone] | 102 | 95.8 | 95.1 | 109 | 110 | 99.9 | 94.7 | 95.6 | 102 | 106 | 98.8 | 92.6 | 97.6 | 99.7 | 99.6 | 103 | 98.4 | 93.2 | 101 | 110 | 95.4 | 95.4 | 101 | 100 | 105 | > 10 | > 10 | > 10 | > 10 | > 10 | 0 | 0 | 0 | 0 | 0
3 | CC(C)(COP(=O)(O)OP(=O)(O)OC[C@H]1O[C@@H](n2cnc3c(N)ncnc32)[C@H](O)[C@@H]1OP(=O)(O)O)[C@@H](O)C(=O)NCCC(=O)NCCS [coenzyme-A] | 109 | 96.6 | 111 | 96 | 98.4 | 108 | 102 | 92.4 | 104 | 98.9 | 100 | 100 | 102 | 97.8 | 110 | 100 | 101 | 96.7 | 99.8 | 102 | 96.9 | 100 | 103 | 103 | 104 | > 10 | > 10 | > 10 | > 10 | > 10 | 0 | 0 | 0 | 0 | 0
4 | CN(C)c1ccc(C(=C2C=CC(=[N+](C)C)C=C2)c2ccc(N(C)C)cc2)cc1 [crystal-violet] | 112 | 89.9 | 111 | 10.7 | 3.6 | 96 | 89.5 | 100 | 6.8 | -0.4 | 86.3 | 94.9 | 80.9 | 21.4 | 4.4 | 100 | 94 | 104 | 31.5 | 2.1 | 96.6 | 100 | 96.4 | 17.4 | -0.4 | 0.432 | 0.383 | 0.295 | 0.715 | 0.477 | 15.7 | 16.9 | 16.9 | 13.3 | 15.6
5 | CCC(CC)CC1(C(=O)Nc2ccccc2SC(=O)C(C)C)CCCCC1 [dalcetrapib] | 88.6 | 103 | 88 | 98.6 | 90.2 | 98.4 | 99.2 | 101 | 102 | 101 | 99.9 | 97.1 | 94.3 | 93.7 | 107 | 96 | 95.4 | 103 | 90 | 97.8 | 96.9 | 97.1 | 108 | 98.3 | 104 | > 10 | > 10 | > 10 | > 10 | > 10 | 0 | 0 | 0 | 0 | 0
6 | Cc1nc(Nc2ncc(C(=O)Nc3c(C)cccc3Cl)s2)cc(N2CCN(CCO)CC2)n1 [dasatinib] | 102 | 99 | 87.1 | 80.6 | 30.1 | 99 | 93.1 | 76.1 | 29.6 | 16.9 | 101 | 97.6 | 77 | 45.5 | 33.2 | 95.1 | 72 | 36.6 | 30.2 | 18.1 | 100 | 93.9 | 85 | 53.9 | 36.8 | 1.62 | 0.218 | 0.201 | 0.0245 | 0.33 | 6.2 | 15.9 | 12.9 | 24.7 | 10.3
